Patent publication US8455534B2, “Estrogen receptor modulators and uses thereof” (Aragon Pharmaceuticals, Inc., priority 2010, dated 2013)

Tests used:
[1] = tested on: MCF-7 cells; experiment: Breast Cancer Cell Viability Assay (MCF-7, CellTiter-Glo); type: cell-based; details: 5 days' compound exposure; for IC50: Homo sapiens, MCF7, 120 h
In short: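 MCF-7 cells, 320 per well in RPMI with 10% FBS and 20 mM HEPES, adhered overnight, then exposed 5 days to an eleven-point semilog dilution (final 0.3-0.000003 μM). CellTiter-Glo luminescence read; % viability = (sample − cell-free background)/(untreated − background) × 100.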

[2] = target: T1, ER-α (Homo sapiens, UniProt P03372); experiment: Breast Cancer Cell ER-α In Cell Western Assay (SP1); type: cell-based; details: MCF-7 cells, SP1 antibody, 4 or 24 hr post compound addition; for Emax: MCF7, read-out: ER-α In Cell Western Assay (SP1) Max Response; for DC50: read-out: ER-α In Cell Western Assay (SP1) IC50
T1 sequence (P03372 1-595): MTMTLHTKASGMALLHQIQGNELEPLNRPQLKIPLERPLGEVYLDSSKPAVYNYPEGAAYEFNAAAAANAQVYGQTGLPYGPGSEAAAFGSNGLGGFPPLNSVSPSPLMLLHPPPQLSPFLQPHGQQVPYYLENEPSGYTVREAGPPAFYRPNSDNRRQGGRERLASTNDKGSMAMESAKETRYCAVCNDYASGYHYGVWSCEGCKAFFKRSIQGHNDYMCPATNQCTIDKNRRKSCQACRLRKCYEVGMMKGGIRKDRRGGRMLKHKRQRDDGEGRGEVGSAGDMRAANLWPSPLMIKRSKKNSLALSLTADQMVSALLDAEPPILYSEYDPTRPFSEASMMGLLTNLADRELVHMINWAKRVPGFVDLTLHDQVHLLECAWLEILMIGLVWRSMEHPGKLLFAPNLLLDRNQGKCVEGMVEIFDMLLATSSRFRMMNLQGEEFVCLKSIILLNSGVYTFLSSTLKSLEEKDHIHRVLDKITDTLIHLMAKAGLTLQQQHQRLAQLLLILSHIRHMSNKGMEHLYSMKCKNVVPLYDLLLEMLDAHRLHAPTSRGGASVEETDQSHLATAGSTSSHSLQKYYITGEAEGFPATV
In short: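 ER-α protein levels measured by in-cell western with SP1 antibody, ratioed to DRAQ5 DNA signal and given as percent of untreated controls. Compounds added at 0.3–0.000003 μM final (eleven semilog points) to adherent MCF-7 cells in stripped serum; exposure 4 or 24 h before fixation.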

Row | SMILES | IC50 [1] [nM] | Emax [2] [%] | DC50 [2] [nM] | MCF7 Viability Assay Max Response [1]
1 | O=C(O)/C=C/c1ccc(/C(=C(/CCF)c2ccc(F)cc2)c2ccc3[nH]ncc3c2)cc1 [Compound 78, (E)-3-(4-((E)-4-Fluoro-2-(4-fluorophenyl)-1-(1H-indazol-5-yl)but-1-en-1-yl)phenyl)acrylic acid] | ≤ 100 | ≥ 40 | ≤ 100 | ++ (++ = a single % value ≧ 40%)
2 | O=C(O)/C=C/c1ccc(/C(=C(/CCF)c2ccccc2)c2ccc3[nH]ncc3c2F)cc1 [Compound 79, (E)-3-(4-((E)-4-Fluoro-1-(4-fluoro-1H-indazol-5-yl)-2-phenylbut-1-en-1-yl)phenyl)acrylic acid] | ≤ 100 | ≥ 40 | ≤ 100 | ++ (++ = a single % value ≧ 40%)
3 | COCCC/C(=C(/c1ccc(/C=C/C(=O)O)cc1)c1ccc2[nH]ncc2c1)c1ccccc1 [Compound 80, (E)-3-(4-((E)-1-(1H-Indazol-5-yl)-5-methoxy-2-phenylpent-1-en-1-yl)phenyl)acrylic acid] | > 100 | ≥ 40 | ≤ 100 | ++ (++ = a single % value ≧ 40%)
4 | COCCCC/C(=C(/c1ccc(/C=C/C(=O)O)cc1)c1ccc2[nH]ncc2c1)c1ccccc1 [Compound 81, (E)-3-(4-((E)-1-(1H-Indazol-5-yl)-6-methoxy-2-phenylhex-1-en-1-yl)phenyl)acrylic acid] | > 100 | ≥ 40 | ≤ 100 | ++ (++ = a single % value ≧ 40%)
5 | CC(C)/C(=C(/c1ccc(/C=C/C(=O)O)cc1)c1ccc2[nH]ncc2c1)c1ccc(F)cc1Cl [Compound 82, (E)-3-(4-((E)-2-(2-Chloro-4-fluorophenyl)-1-(1H-indazol-5-yl)-3-methylbut-1-en-1-yl)phenyl)acrylic acid] | ≤ 100 | ≥ 40 | ≤ 100 | ++ (++ = a single % value ≧ 40%)
6 | CC/C(=C(/c1ccc(/C=C/C(=O)O)cc1)c1ccc2[nH]ncc2c1)c1cccc(OC(F)(F)F)c1 [Compound 83, (E)-3-(4-((E)-1-(1H-Indazol-5-yl)-2-(3-(trifluoromethoxy)phenyl)but-1-en-1-yl)phenyl)acrylic acid] | ≤ 100 | ≥ 40 | ≤ 100 | ++ (++ = a single % value ≧ 40%)
7 | O=C(O)/C=C/c1ccc(/C(=C(\c2ccccc2)C2CCC2)c2ccc3[nH]ncc3c2)cc1 [Compound 84, (E)-3-(4-((E)-2-Cyclobutyl-1-(1H-indazol-5-yl)-2-phenylvinyl)phenyl)acrylic acid] | ≤ 100 | ≥ 40 | ≤ 100 | ++ (++ = a single % value ≧ 40%)

The next lines start with results.

Row | IC50 [1] [nM] | Emax [2] [%] | DC50 [2] [nM] | SMILES | MCF7 Viability Assay Max Response [1]
8 | ≤ 100 | ≥ 40 | ≤ 100 | O=C(O)/C=C/c1ccc(/C(=C(\c2ccccc2)C2CC2)c2ccc3[nH]ncc3c2F)cc1 [Compound 75, (E)-3-(4-((E)-2-Cyclopropyl-1-(4-fluoro-1H-indazol-5-yl)-2-phenylvinyl)phenyl)acrylic acid] | ++ (++ = a single % value ≧ 40%)
9 | ≤ 100 | ≥ 40 | ≤ 100 | O=C(O)/C=C/c1ccc(/C(=C(/CCCl)c2ccccc2)c2ccc3[nH]ncc3c2F)cc1 [Compound 76, (E)-3-(4-((E)-4-Chloro-1-(4-fluoro-1H-indazol-5-yl)-2-phenylbut-1-en-1-yl)phenyl)acrylic acid] | ++ (++ = a single % value ≧ 40%)
10 | ≤ 100 | ≥ 40 | ≤ 100 | O=C(O)/C=C/c1ccc(/C(=C(/CCCl)c2ccc(F)cc2Cl)c2ccc3[nH]ncc3c2F)cc1 [Compound 77, (E)-3-(4-((E)-4-Chloro-2-(2-chloro-4-fluorophenyl)-1-(4-fluoro-1H-indazol-5-yl)but-1-en-1-yl)phenyl)acrylic acid] | ++ (++ = a single % value ≧ 40%)
